Key:
Experiment in all cases: Test E greenhouse herbicide test, pre- and postemergence
Assay type in all cases: in vivo
Conditions in all cases: Postemergence
[1] = test system: corn (Zea mays)
Procedure, shortened: (§1)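 Visual ratings, 0 for no effect up to 100 for complete control, were taken relative to controls 14 to 21 d after greenhouse treatment. Applications used a surfactant-containing non-phytotoxic solvent formulation, sprayed either preemergence on silt loam-sown seed or postemergence on 1- to 4-leaf plants 2-18 cm tall in peat-based potting medium.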

[2] = test system: Italian ryegrass (Lolium multiflorum)
Procedure, shortened: as §1

[3] = test system: barnyardgrass (Echinochloa crus-galli)
Procedure, shortened: as §1

[4] = test system: dayflower (Virginia (VA) dayflower, Commelina virginica)
Procedure, shortened: as §1

[5] = test system: beggarticks (hairy beggarticks, Bidens pilosa)
Procedure, shortened: as §1

[6] = test system: panicum, fall (fall panicum, Panicum dichotomiflorum)
Procedure, shortened: as §1

[7] = test system: field bindweed (Convolvulus arvensis)
Procedure, shortened: as §1

[8] = test system: wild poinsettia (Euphorbia heterophylla)
Procedure, shortened: as §1

[9] = 62 g ai/ha, scale 0 to 100 (0 no effect, 100 complete control)
[10] = 125 g ai/ha, scale 0 to 100 (0 no effect, 100 complete control)
[11] = 250 g ai/ha, scale 0 to 100 (0 no effect, 100 complete control)
[12] = 31 g ai/ha, visual, scale 0 no effect to 100 complete control
[13] = 16 g ai/ha, visual, scale 0 no effect to 100 complete control

Row | SMILES | Plant response rating, Corn [1, 9] | Plant response rating, Corn [1, 10] | Plant response rating, Corn [1, 12] | Plant response rating, Ryegrass, Italian [2, 9] | Plant response rating, Ryegrass, Italian [2, 10] | Plant response rating, Ryegrass, Italian [2, 12] | Plant response rating, Barnyardgrass [3, 9] | Plant response rating, Barnyardgrass [3, 10] | Plant response rating, Barnyardgrass [3, 12] | Plant response rating, Dayflower, VA [4, 9] | Plant response rating, Dayflower, VA [4, 10] | Plant response rating, Dayflower, VA [4, 12] | Plant response rating, Beggarticks [5, 9] | Plant response rating, Beggarticks [5, 10] | Plant response rating, Beggarticks [5, 12] | Plant response rating, Panicum, Fall [6, 9] | Plant response rating, Panicum, Fall [6, 10] | Plant response rating, Panicum, Fall [6, 12] | Plant response rating, Field Bindweed [7, 9] | Plant response rating, Field Bindweed [7, 10] | other results
1 | CCC(=O)Oc1c(C)nn(C)c(=O)c1-c1c(C)sc2ccc(C)cc12 [Compound 42] | 15 | 15 | 10 | 70 | 85 | 50 | 30 | 30 | 20 | 50 | 60 | 30 | 95 | 100 | 95 | 50 | 80 | 60 | 85 | 90 | Plant response rating, Corn [1, 11]: 20; Plant response rating, Ryegrass, Italian [2, 11]: 90; Plant response rating, Barnyardgrass [3, 11]: 35; Plant response rating, Dayflower, VA [4, 11]: 70; Plant response rating, Beggarticks [5, 11]: 100; Plant response rating, Panicum, Fall [6, 11]: 95; Plant response rating, Field Bindweed [7, 11]: 90; Plant response rating, Field Bindweed [7, 12]: 90
2 | CC(=O)Oc1c(C)nn(C)c(=O)c1-c1ccc(F)c2ccccc12 [Compound 90] | 5 | 0 | 0 | 85 | 85 | 80 | 40 | 50 | 30 | 80 | 90 | 60 | 98 | 100 | 90 | 60 | 70 | 60 | 90 | 100 | Plant response rating, Corn [1, 13]: 5; Plant response rating, Ryegrass, Italian [2, 13]: 75; Plant response rating, Barnyardgrass [3, 13]: 30; Plant response rating, Dayflower, VA [4, 13]: 40; Plant response rating, Beggarticks [5, 13]: 85; Plant response rating, Panicum, Fall [6, 13]: 40; Plant response rating, Field Bindweed [7, 13]: 60; Plant response rating, Field Bindweed [7, 12]: 80; Plant response rating, Poinsettia, Wild [8, 9]: 50; Plant response rating, Poinsettia, Wild [8, 10]: 60; Plant response rating, Poinsettia, Wild [8, 13]: 20; Plant response rating, Poinsettia, Wild [8, 12]: 35
3 | COc1nn(C)c(=O)c(-c2c(C)sc3ccc(Cl)cc23)c1O [Compound 100] | 5 | 0 | 0 | 60 | 70 | 50 | 40 | 30 | 30 | 0 | 0 | 0 | 80 | 90 | 75 | 50 | 70 | 30 | 80 | 90 | Plant response rating, Corn [1, 11]: 0; Plant response rating, Ryegrass, Italian [2, 11]: 85; Plant response rating, Barnyardgrass [3, 11]: 50; Plant response rating, Dayflower, VA [4, 11]: 0; Plant response rating, Beggarticks [5, 11]: 100; Plant response rating, Panicum, Fall [6, 11]: 80; Plant response rating, Field Bindweed [7, 11]: 95; Plant response rating, Field Bindweed [7, 12]: 75; Plant response rating, Poinsettia, Wild [8, 9]: 0; Plant response rating, Poinsettia, Wild [8, 10]: 10; Plant response rating, Poinsettia, Wild [8, 11]: 35; Plant response rating, Poinsettia, Wild [8, 12]: 0
4 | CSCC(=O)Oc1c(C)nn(C)c(=O)c1-c1cccc2ccccc12 [Compound 171] | 0 | 0 | 0 | 75 | 85 | 65 | 45 | 50 | 40 | 50 | 70 | 40 | 95 | 100 | 80 | 50 | 60 | 40 | 85 | 100 | Plant response rating, Corn [1, 11]: 0; Plant response rating, Ryegrass, Italian [2, 11]: 90; Plant response rating, Barnyardgrass [3, 11]: 50; Plant response rating, Dayflower, VA [4, 11]: 90; Plant response rating, Beggarticks [5, 11]: 100; Plant response rating, Panicum, Fall [6, 11]: 75; Plant response rating, Field Bindweed [7, 11]: 100; Plant response rating, Field Bindweed [7, 12]: 70; Plant response rating, Poinsettia, Wild [8, 9]: 30; Plant response rating, Poinsettia, Wild [8, 10]: 40; Plant response rating, Poinsettia, Wild [8, 11]: 80; Plant response rating, Poinsettia, Wild [8, 12]: 25

From patent US10597388B2, “Pyridazinone herbicides” (FMC CORPORATION, priority 2014, dated 2020)
